The target in this assay is T1, Androgen Receptor (AR) (Homo sapiens, UniProt P10275, T878A).
T1 construct: cell based immuno-fluorescence assay using the LNCaP prostate epithelial cell line; host or cells: LNCaP clone FGC prostate carcinoma cells
T1 sequence (P10275 1-920 T878A): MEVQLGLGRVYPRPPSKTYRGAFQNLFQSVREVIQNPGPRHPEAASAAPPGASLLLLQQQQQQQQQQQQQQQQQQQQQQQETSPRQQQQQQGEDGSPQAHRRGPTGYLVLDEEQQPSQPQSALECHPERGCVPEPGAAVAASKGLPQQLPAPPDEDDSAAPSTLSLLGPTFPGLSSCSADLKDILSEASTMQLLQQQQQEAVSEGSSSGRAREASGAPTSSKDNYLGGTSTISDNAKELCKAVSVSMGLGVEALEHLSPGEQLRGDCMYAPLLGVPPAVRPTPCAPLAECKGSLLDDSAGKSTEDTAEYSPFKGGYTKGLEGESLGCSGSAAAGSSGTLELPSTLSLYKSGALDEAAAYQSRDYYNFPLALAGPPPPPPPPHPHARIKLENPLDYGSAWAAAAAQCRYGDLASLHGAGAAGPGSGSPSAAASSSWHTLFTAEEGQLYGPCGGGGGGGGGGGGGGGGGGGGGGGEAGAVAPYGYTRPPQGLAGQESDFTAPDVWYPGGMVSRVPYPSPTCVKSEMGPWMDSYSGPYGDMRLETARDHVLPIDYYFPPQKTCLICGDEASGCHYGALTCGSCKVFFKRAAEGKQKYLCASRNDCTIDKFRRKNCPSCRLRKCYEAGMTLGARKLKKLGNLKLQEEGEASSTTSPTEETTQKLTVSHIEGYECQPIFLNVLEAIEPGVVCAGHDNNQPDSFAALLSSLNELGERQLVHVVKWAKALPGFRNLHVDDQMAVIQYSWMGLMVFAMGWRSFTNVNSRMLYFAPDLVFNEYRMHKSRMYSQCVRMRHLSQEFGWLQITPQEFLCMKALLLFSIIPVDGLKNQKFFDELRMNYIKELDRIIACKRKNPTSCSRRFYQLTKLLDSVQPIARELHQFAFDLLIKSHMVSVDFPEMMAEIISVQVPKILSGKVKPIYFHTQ
The experiment in a line: LNCaP Androgen Receptor Down-Regulation Cell Assay. The conditions noted are these: LNCaP prostate carcinoma cell line; 20-22 hours incubation; immunofluorescence; 50% reduction of the AR signal. Type of assay: cell-based. As for the experimental part: The ability of compounds to reduce Androgen Receptor (AR) numbers was assessed in a cell based immuno-fluorescence assay using the LNCaP prostate epithelial cell line.
This immunofluorescence end point assay measures the ability of a test compound to down-regulate and reduce measured levels of the AR in the LNCaP prostate carcinoma cell line (LNCaP clone FGC (CRL-1740) obtained from the American Type Culture Collection (ATCC)).
LNCaP cells were cultured in Growth Medium (phenol red free Roswell Park Memorial Institute (RPMI) 1640 (Invitrogen Code no. 11835-063) containing 2 mM L-Glutamine (Invitrogen Code no. 25030-024) and 1% (v/v) Penicillin/Streptomycin (10000 units/ml Penicillin and 10000 μg/ml of Streptomycin utilising penicillin G (sodium salt) and streptomycin sulphate: prepared in normal saline, Invitrogen Code no. 15140122) and 10% (v/v) foetal bovine serum (FBS)) in a 5% CO2 air incubator at 37° C. Cells for assay were harvested from T175 stock flasks by washing once in PBS (phosphate buffered saline, pH 7.4) (Invitrogen Code no. 14190-094) and harvested using 5 mls of 1× Trypsin/ethylaminediaminetetraacetic acid (EDTA) (10× Trypsin-EDTA, 5.0 g/L Trypsin, 2.0 g/L of EDTA•4Na and 8.5 g/L of NaCl, without Phenol Red, Invitrogen Code no. 15400-054) diluted in PBS solution. A 5 ml volume of Growth Medium was added to each flask (as above except that 5% (v/v) charcoal stripped FBS (HyClone Code no. SH30068.03) was included instead of 10% (v/v) FBS). Cells were syringed at least twice using a sterile 18G×1.5″ (1.2×40 mm) broad gauge needle and cell density was measured using a haemocytometer. Cells were further diluted in Growth Medium plus 5% (v/v) charcoal stripped FBS and seeded at a density of 6.5×10^3 cells per well (in 90 ul) into transparent, black, tissue culture treated 96 well plates (Packard, No. 6005182).
Test data reported herein was generated using two different compounds preparation and dosing methods. In method (1) a 10 mM compound stock solution in 100% (v/v) DMSO was serially diluted in 4-fold steps in 100% (v/v) DMSO using a Thermo Scientific Matrix SerialMate. The diluted compounds were then further diluted 1 in 30 in assay media using a Thermo Scientific Matrix PlateMate and a 10 μl aliquot of this dilution was dosed to cells manually using a multi-channel pipette. In method (2) starting with a 10 mM compound stock solution, the Labcyte Echo 550 was used to generate a compound concentration response set diluted in 30 μl of assay media. The Echo 550 is a liquid handler that uses acoustic technology to perform direct microplate-to-microplate transfers of DMSO compound solutions. The system can be programmed to transfer volumes as low as […] in multiple increments between microplates and in so doing generates a serial dilution of compound which is then back-filled to normalise the DMSO is concentration across the dilution range. A 10 μl volume of diluted compound is then dosed to cells using a Thermo Scientific Matrix PlateMate.
Plates were incubated overnight at 37° C., 5% CO2. Wells were then dosed with compound prepared by one of the 2 methods above and further incubated for 20-22 hours at 37° C., 5% CO2. Plates were fixed by the addition of 20 μl of 10% (v/v) formaldehyde solution (in PBS) to each well (final formaldehyde conc.=1.67% (v/v)) and left at room temperature for 10 mins. This fixative solution was removed and cells were washed with 250 μl of PBS/0.05% (v/v) Tween 20 (PBST) using an automated plate washer. This process was then repeated twice more.
Immunostaining was performed at room temperature. Cells were permeabilised by the addition of 35 μl of PBS containing 0.5% Tween 20 and incubated for 1 hour at room temperature. Permeabilisation solution was removed and cells were washed with 250 μl of PBST using an automated plate washer. This process was then repeated twice more. […]
In the case of `CC(=O)N1CCN([C@H](C)COc2ccc(C3(O)CCN(c4ccc5nnc(C(F)(F)F)n5n4)CC3)cc2)CC1` (single isomer, unassigned) [Example 43, 4-{4-[2-(4-acetylpiperazin-1-yl)propoxy]phenyl}-1-[3-(trifluoromethyl)[1,2,4]triazolo[4,3-b]pyridazin-6-yl]piperidin-4-ol], the midpoint of inhibition, the IC50, lay at 84 nM. Under `CC(=O)N1CCN([C@H](C)COc2ccc(C3(O)CCN(c4ccc5nnc(C(F)(F)F)n5n4)CC3)cc2)CC1` (single isomer, unassigned) [Example 44, 4-{4-[2-(4-acetylpiperazin-1-yl)propoxy]phenyl}-1-[3-(trifluoromethyl)[1,2,4]triazolo[4,3-b]pyridazin-6-yl]piperidin-4-ol] stands 36 nM; under `CC(=O)N1CCCN([C@H](C)COc2ccc(C3(O)CCN(c4ccc5nnc(C(F)(F)F)n5n4)CC3)cc2)CC1` (single isomer, unassigned) [Example 45, 4-{4-[2-(4-acetyl-1,4-diazepan-1-yl)propoxy]phenyl}-1-[3-(trifluoromethyl)[1,2,4]triazolo[4,3-b]pyridazin-6-yl]piperidin-4-ol], 82 nM. Regarding `CC(=O)N1CCCN([C@H](C)COc2ccc(C3(O)CCN(c4ccc5nnc(C(F)(F)F)n5n4)CC3)cc2)CC1` (single isomer, unassigned) [Example 46, 4-{4-[2-(4-acetyl-1,4-diazepan-1-yl)propoxy]phenyl}-1-[3-(trifluoromethyl)[1,2,4]triazolo[4,3-b]pyridazin-6-yl]piperidin-4-ol], half-maximal inhibition (IC50) was put at 18 nM. `CC(=O)N1CCN(CCCOc2ccc(N3CCN(c4ccc5nnc(C(F)(F)F)n5n4)CC3)cc2)CC1` [Example 1.1, 6-(4-{4-[3-(4-acetylpiperazin-1-yl)propoxy]phenyl}piperazin-1-yl)-3-(trifluoromethyl)[1,2,4]-triazolo[4,3-b]pyridazine]: the IC50 (in general, the concentration needed to halve the response being measured) was 1500 nM.

`CN1CCN(CCOc2ccc(C3CCN(c4ccc5nnc(C(F)(F)F)n5n4)CC3)cc2)CC1=O` [Example 2, 1-methyl-4-[2-(4-{1-[3-(trifluoromethyl)[1,2,4]-triazolo[4,3-b]pyridazin-6-yl]piperidin-4-yl}phenoxy)ethyl]piperazin-2-one]: half-maximal inhibition (IC50) required 310 nM.

Turning to `CN1CCN(CCOc2ccc(C3(O)CCN(c4ccc5nnc(C(F)(F)F)n5n4)CC3)cc2)CC1=O` [Example 3, 4-[2-(4-[4-hydroxy-1-[3-(trifluoromethyl)[1,2,4]-triazolo[4,3-b]pyridazin-6-yl]piperidin-4-yl]phenoxy)ethyl]-1-methylpiperazin-2-one], the IC50 came out at 360 nM. Under `CN1CCN(CCOc2ccc(N3CCN(c4ccc5nnc(C(F)(F)F)n5n4)CC3)cc2)CC1=O` [Example 4, 1-methyl-4-[2-(4-{4-[3-(trifluoromethyl)[1,2,4]triazolo[4,3-b]pyridazin-6-yl]piperazin-1-yl}phenoxy)ethyl]piperazin-2-one] stands 5700 nM; under `O=C1CN(CCOc2ccc(N3CCN(c4ccc5nnc(C(F)(F)F)n5n4)CC3)cc2)CCN1C1CC1` [Example 5, 1-cyclopropyl-4-[2-(4-{4-[3-(trifluoromethyl)[1,2,4]-triazolo[4,3-b]pyridazin-6-yl]piperazin-1-yl}phenoxy)ethyl]piperazin-2-one], 7800 nM; under `O=C1CN(CCOc2ccc(C3CCN(c4ccc5nnc(C(F)(F)F)n5n4)CC3)cc2)CCN1C1CC1` [Example 6, 1-cyclopropyl-4-[2-(4-{1-[3-(trifluoromethyl)[1,2,4]-triazolo[4,3-b]pyridazin-6-yl]piperidin-4-yl}phenoxy)ethyl]piperazin-2-one], 510 nM. `CN1CCN(CCOc2ccc(N3CCN(c4ccc5nnc(C(F)(F)F)n5n4)CC3)cc2)C(=O)C1` [Example 7, 4-methyl-1-[2-(4-{4-[3-(trifluoromethyl)[1,2,4]-triazolo[4,3-b]pyridazin-6-yl]piperazin-1-yl}phenoxy)ethyl]piperazin-2-one] had an IC50 of 6500 nM. Under `CN1CCN(CCOc2ccc(C3CCN(c4ccc5nnc(C(F)(F)F)n5n4)CC3)cc2)C(=O)C1` [Example 8, 4-methyl-1-[2-(4-{1-[3-(trifluoromethyl)[1,2,4]triazolo[4,3-b]pyridazin-6-yl]piperidin-4-yl}phenoxy)ethyl]piperazin-2-one] stands 1000 nM; under `CN1CCN(CCCOc2ccc(C3CCN(c4ccc5nnc(C(F)(F)F)n5n4)CC3)cc2)CC1=O` [Example 9, 1-methyl-4-[3-(4-{1-[3-(trifluoromethyl)[1,2,4]triazolo[4,3-b]pyridazin-6-yl]piperidin-4-yl}phenoxy)propyl]piperazin-2-one], 300 nM; under `O=C1CN(CCCOc2ccc(C3CCN(c4ccc5nnc(C(F)(F)F)n5n4)CC3)cc2)CCN1C1CC1` [Example 10, 1-cyclopropyl-4-[3-(4-{1-[3-(trifluoromethyl)[1,2,4]triazolo[4,3-b]pyridazin-6-yl]piperidin-4-yl}phenoxy)propyl]piperazin-2-one], 410 nM. The compound `CN1CCN(CCOc2ccc(C3CCN(c4ccc5nnc(C(F)(F)F)n5n4)CC3)cn2)CC1=O` [Example 11, 1-methyl-4-{2-[(5-{1-[3-(trifluoromethyl)[1,2,4]triazolo[4,3-b]pyridazin-6-yl]piperidin-4-yl}pyridin-2-yl)oxy]ethyl}piperazin-2-one] gave an IC50 of 1600 nM. `CN1CCN(CCOc2ccc(C3(O)CCN(c4ccc5nnc(C(F)(F)F)n5n4)CC3)cc2F)CC1=O` [Example 12, 4-[2-(2-fluoro-4-{4-hydroxy-1-[3-(trifluoromethyl)[1,2,4]triazolo[4,3-b]pyridazin-6-yl]piperidin-4-yl}phenoxy)ethyl]-1-methylpiperazin-2-one] yielded an IC50 of 670 nM. Regarding `CN1CCN(CCOc2ccc(C3CCN(c4ccc5nnc(C(F)(F)F)n5n4)CC3)cc2F)CC1=O` [Example 13, 4-[2-(2-fluoro-4-{1-[3-(trifluoromethyl)[1,2,4]triazolo[4,3-b]pyridazin-6-yl]piperidin-4-yl}phenoxy)ethyl]-1-methylpiperazin-2-one], half-maximal inhibition (IC50) required 310 nM.

For the origin of these results see patent US20100292222A1, “CHEMICAL COMPOUNDS 751” (ASTRAZENECA AB, priority 2009, published 2010).
